One block for each compound: values may come before it.
Key:
[1] = Metabolic stability in rat serum assessed as compound degradation to metformin after 24 hrs by HPLC; type: ADME, cell-free; conditions: read-out: Activity
Rattus norvegicus [2] = assay: Oral bioavailability in Wistar rat assessed as metformin level at 100 mg/kg; type: ADME, organism-based; conditions: in vivo
[3] = Metabolic stability in human serum assessed as compound degradation to metformin after 24 hrs by HPLC; type: ADME, cell-free; conditions: read-out: Activity
Rattus norvegicus [4] = assay: Cmax in Wistar rat plasma assessed as metformin level at 100 mg/kg, po; type: ADME, organism-based; design: dose 100 mg/kg, route oral; conditions: in vivo
Rattus norvegicus [5] = assay: AUC (0 to infinity) in Wistar rat plasma assessed as metformin level at 67 mg/kg, iv; type: ADME, organism-based; design: time infinity, dose 67 mg/kg, route intravenous; conditions: in vivo
[6] = Octanol-water distribution coefficient, log D at pH 4 by HPLC; type: physicochemical
[7] = Chemical stability in 50 mM HCl buffer at pH 1.0 at 37 degC assessed as half life by HPLC; type: physicochemical
[8] = Metabolic stability in 20% rat liver homogenate assessed as compound degradation to metformin after 24 hrs by HPLC; type: ADME, tissue-based; conditions: 20% liver homogenate, read-out: Activity
Rattus norvegicus [9] = assay: AUC (0 to infinity) in Wistar rat plasma assessed as metformin level at 100 mg/kg, po; type: ADME, organism-based; design: time infinity, dose 100 mg/kg, route oral; conditions: in vivo
[10] = Chemical stability in 15 mM hydrogen peroxide solution at pH 7.4 at 37 degC assessed as half life by HPLC; type: physicochemical
[11] = Octanol-water distribution coefficient, log D at pH 7.4 by HPLC; type: physicochemical
Rattus norvegicus [12] = assay: Tmax in Wistar rat plasma assessed as metformin level at 100 mg/kg, po; type: ADME, organism-based; design: dose 100 mg/kg, route oral; conditions: in vivo
[13] = Chemical stability in 50 mM acetate buffer at pH 4.0 at 37 degC assessed as compound degradation to metformin after 4 weeks by HPLC; type: physicochemical; conditions: read-out: Activity
Rattus norvegicus [14] = assay: Cmax in Wistar rat plasma assessed as metformin level at 67 mg/kg, iv; type: ADME, organism-based; design: dose 67 mg/kg, route intravenous; conditions: in vivo
Rattus norvegicus [15] = assay: Tmax in Wistar rat plasma assessed as metformin level at 67 mg/kg, iv; type: ADME, organism-based; design: dose 67 mg/kg, route intravenous; conditions: in vivo
[16] = Chemical stability in 50 mM phosphate buffer at pH 7.4 at 37 degC assessed as compound degradation to metformin after 4 weeks by HPLC; type: physicochemical; conditions: read-out: Activity
[17] = Chemical stability in 50 mM borate buffer at pH 9.0 at 37 degC assessed as compound degradation to metformin after 4 weeks by HPLC; type: physicochemical; conditions: read-out: Activity
[18] = Metabolic stability in rat serum assessed as half life by HPLC; type: ADME, cell-free
[19] = Chemical stability in 50 mM acetate buffer at pH 4.0 at 37 degC assessed as half life by HPLC; type: physicochemical
Serum = assay: Metabolic stability in human serum assessed as half life by HPLC; type: ADME, cell-free
[20] = Chemical stability in 50 mM borate buffer at pH 9.0 at 37 degC assessed as half life by HPLC; type: physicochemical
[21] = Chemical stability in 50 mM phosphate buffer at pH 7.4 at 37 degC assessed as half life by HPLC; type: physicochemical
[22] = Metabolic stability in 20% rat liver homogenate assessed as half life by HPLC; type: ADME, tissue-based; conditions: 20% liver homogenate
in vivo [23] = conditions: Wistar, rat, plasma, po, 140 mg/kg
Description: AUC (0 to infinity) in Wistar rat plasma at 140 mg/kg, po

[24] = Tmax in Wistar rat plasma at 35 mg/kg, iv; type: ADME, organism-based; design: dose 35 mg/kg, route intravenous
Rattus norvegicus [25] = assay: AUC (0 to infinity) in Wistar rat plasma at 35 mg/kg, iv; type: ADME, organism-based; design: time infinity, dose 35 mg/kg, route intravenous; conditions: in vivo
in vivo [26] = conditions: Wistar, rat, plasma, po, 140 mg/kg; remark: listed apart in the source
Description: Tmax in Wistar rat plasma at 140 mg/kg, po

in vivo [27] = conditions: Wistar, rat, plasma, po, 140 mg/kg; remark: listed apart in the source
Description: Cmax in Wistar rat plasma at 140 mg/kg, po

[28] = Cmax in Wistar rat plasma at 35 mg/kg, iv; type: ADME, organism-based; design: dose 35 mg/kg, route intravenous

metabolised at 24 h [1]: 10% | F (Rattus norvegicus [2]): 64.5% | metabolised at 24 h [3]: 10% | Cmax (Rattus norvegicus [4]): 1300 ng/mL | AUC (Rattus norvegicus [5]): 291 µg·min/mL | logD [6]: -1.1 | half-life [7]: 478 min | metabolised at 24 h [8]: 10% | AUC (Rattus norvegicus [9]): 275 µg·min/mL | half-life [10]: 35.8 min | logD [11]: 0.49 | Tmax (Rattus norvegicus [12]): 60 min | degraded at 672 h [13]: 10% | Cmax (Rattus norvegicus [14]): 3000 ng/mL | Tmax (Rattus norvegicus [15]): 10 min | degraded at 672 h [16]: 10% | degraded at 672 h [17]: 40%
SMILES: CN(C)C(=N)/N=C(\N)NSC1CCCCC1

half-life [18]: 36.8 min | logD [6]: -0.7 | half-life [19]: 78.6 h | half-life [7]: 12.1 min | half-life [10]: 14.2 min | logD [11]: -0.76 | t1/2 (Serum): 0.0623 min | half-life [20]: 18.1 min | half-life [21]: 78.6 h | half-life [22]: 0.25 min
SMILES: CN(C)C(=N)/N=C(\N)NSc1ccccc1

AUC(0-inf) (in vivo [23]): 4820 ng·h/mL | Tmax [24]: 1 min | AUC (Rattus norvegicus [25]): 170 µg·min/mL | Tmax (in vivo [26]): 50 min | Cmax (in vivo [27]): 1700 ng/mL | Cmax [28]: 20900 ng/mL
SMILES: CN(C)C(=N)N=C(N)N [METFORMIN]

Reference: ChEMBL document CHEMBL1158453 (J Med Chem, 2009)
